Measured values published in ChEMBL document CHEMBL3046827, “Synthesis and antimicrobial activities of N-chloroacetyl-2,6-diarylpiperidin-4-ones” (2007).
Converted amounts (≈) assume the structure as drawn. The source made the active and inactive calls. The calls are words filed in the database; no cut-off is given here.

Tests used:
[1] = system: Salmonella typhi; assay: Antibacterial activity against Salmonella enterica subsp. enterica serovar Typhi after 24 hr by twofold serial dilution method; assay type: functional
[2] = system: Rhizopus; assay: Antifungal activity against Rhizopus sp. after 72 to 96 hr by two-fold serial dilution method; assay type: functional
[3] = system: Cryptococcus neoformans; assay: Antifungal activity against Cryptococcus neoformans after 72 to 96 hr by two-fold serial dilution method; assay type: functional
[4] = system: Aspergillus flavus; assay: Antifungal activity against Aspergillus flavus assessed as growth inhibition at 200 ug/mL after 72 to 96 hr by two-fold serial dilution method; assay type: functional, organism-based
[5] = system: Bacillus subtilis; assay: Antibacterial activity against Bacillus subtilis after 24 hr by two-fold serial dilution method; assay type: functional
[6] = system: Candida albicans; assay: Antifungal activity against Candida albicans after 72 to 96 hr by two-fold serial dilution method; assay type: functional
[7] = system: Staphylococcus aureus; assay: Antibacterial activity against Staphylococcus aureus after 24 hr by two-fold serial dilution method; assay type: functional
[8] = system: Aspergillus niger; assay: Antifungal activity against Aspergillus niger after 72 to 96 hr by two-fold serial dilution method; assay type: functional
[9] = system: Pseudomonas aeruginosa; assay: Antibacterial activity against Pseudomonas aeruginosa after 24 hr by twofold serial dilution method; assay type: functional
[10] = system: Escherichia coli; assay: Antibacterial activity against Escherichia coli after 24 hr by two-fold serial dilution method; assay type: functional
[11] = system: Aspergillus flavus; assay: Antifungal activity against Aspergillus flavus after 72 to 96 hr by two-fold serial dilution method; assay type: functional
[12] = system: Escherichia coli; assay: Antibacterial activity against Escherichia coli assessed as growth inhibition at 200 ug/mL after 24 hr by two-fold serial dilution method; assay type: functional, organism-based
[13] = system: Rhizopus; assay: Antifungal activity against Rhizopus sp. assessed as growth inhibition at 200 ug/mL after 72 to 96 hr by two-fold serial dilution method; assay type: functional, organism-based
[14] = system: Aspergillus niger; assay: Antifungal activity against Aspergillus niger assessed as growth inhibition at 200 ug/mL after 72 to 96 hr by two-fold serial dilution method; assay type: functional, organism-based
[15] = system: Cryptococcus neoformans; assay: Antifungal activity against Cryptococcus neoformans assessed as growth inhibition at 200 ug/mL after 72 to 96 hr by two-fold serial dilution method; assay type: functional, organism-based
[16] = system: Bacillus subtilis; assay: Antibacterial activity against Bacillus subtilis assessed as growth inhibition at 200 ug/mL after 24 hr by two-fold serial dilution method; assay type: functional, organism-based

`CC(C)C1C(=O)CC(c2ccccc2)N(C(=O)CCl)C1c1ccccc1` (configuration not stated) was tested, and the MIC [1] was 100 µg/mL (≈ 270 µM), the MIC [2] was 100 µg/mL (≈ 270 µM) and the MIC [3] was 200 µg/mL (≈ 541 µM). The “growth inhibition (GI)” value [4] was “inactive”, the MIC [5] was 200 µg/mL (≈ 541 µM) and the MIC [6] was 50 µg/mL (≈ 135 µM). For the same molecule, the MIC [7] was 100 µg/mL (≈ 270 µM), the MIC [8] was 100 µg/mL (≈ 270 µM) and the MIC [9] was 200 µg/mL (≈ 541 µM). For the same molecule, the MIC [10] was 200 µg/mL (≈ 541 µM).

With `O=C(O)c1cn(C2CC2)c2cc(N3CCNCC3)c(F)cc2c1=O` [CIPROFLOXACIN] the MIC [1] was 50 µg/mL (≈ 151 µM) and the MIC [10] was 25 µg/mL (≈ 75.4 µM).

`COc1ccc(C2CC(=O)C(C)C(c3ccc(OC)cc3)N2C(=O)CCl)cc1` (configuration not stated) showed an MIC [1] of 100 µg/mL (≈ 249 µM), an MIC [2] of 25 µg/mL (≈ 62.2 µM) and an MIC [3] of 100 µg/mL (≈ 249 µM). The MIC [5] was 200 µg/mL (≈ 498 µM), the MIC [6] was 100 µg/mL (≈ 249 µM) and the MIC [7] was 25 µg/mL (≈ 62.2 µM). The MIC [11] was 50 µg/mL (≈ 124 µM), the MIC [8] was 50 µg/mL (≈ 124 µM) and the MIC [9] was 50 µg/mL (≈ 124 µM). The MIC [10] was 100 µg/mL (≈ 249 µM).

Work on `C[C@@H]1[C@H](O)[C@@H](C)/C=C/C=C/C=C/C=C/C=C/C=C/C=C/[C@H](O[C@@H]2O[C@H](C)[C@@H](O)[C@H](N)[C@@H]2O)C[C@@H]2O[C@](O)(C[C@@H](O)C[C@@H](O)[C@H](O)CC[C@@H](O)C[C@@H](O)CC(=O)O[C@H]1C)C[C@H](O)[C@H]2C(=O)O` [AMPHOTERICIN B] yielded an MIC [2] of 25 µg/mL (≈ 27.1 µM), an MIC [3] of 25 µg/mL (≈ 27.1 µM) and an MIC [6] of 25 µg/mL (≈ 27.1 µM). For the same molecule, the MIC [11] was 50 µg/mL (≈ 54.1 µM) and the MIC [8] was 50 µg/mL (≈ 54.1 µM).

With `O=C1CC(c2ccccc2)N(C(=O)CCl)C(c2ccccc2)C1` (configuration not stated) the “growth inhibition (GI)” value [12] was “inactive”, the MIC [1] was 50 µg/mL (≈ 153 µM) and the “growth inhibition (GI)” value [13] was “inactive”. The MIC [6] was 200 µg/mL (≈ 610 µM), the “growth inhibition (GI)” value [14] was “inactive” and the MIC [7] was 200 µg/mL (≈ 610 µM). The MIC [11] was 100 µg/mL (≈ 305 µM), the “growth inhibition (GI)” value [15] was “inactive” and the “growth inhibition (GI)” value [16] was “inactive”. It also gave an MIC [9] of 100 µg/mL (≈ 305 µM).

In the case of `CN[C@@H]1[C@H](O[C@H]2[C@H](O[C@H]3[C@H](O)[C@@H](O)[C@H](N=C(N)N)[C@@H](O)[C@@H]3N=C(N)N)O[C@@H](C)[C@]2(O)C=O)O[C@@H](CO)[C@H](O)[C@H]1O` [STREPTOMYCIN], the MIC [1] is reported as 25 µg/mL (≈ 43 µM), the MIC [5] is reported as 12.5 µg/mL (≈ 21.5 µM) and the MIC [7] is reported as 25 µg/mL (≈ 43 µM). For the same molecule, the MIC [9] was 50 µg/mL (≈ 86 µM) and the MIC [10] was 50 µg/mL (≈ 86 µM).

`CC1C(=O)CC(c2ccccc2)N(C(=O)CCl)C1c1ccccc1` (configuration not stated) was tested, and the MIC [1] was 50 µg/mL (≈ 146 µM), the MIC [2] was 100 µg/mL (≈ 293 µM) and the MIC [3] was 100 µg/mL (≈ 293 µM). For the same molecule, the MIC [5] was 100 µg/mL (≈ 293 µM), the MIC [6] was 200 µg/mL (≈ 585 µM) and the MIC [7] was 100 µg/mL (≈ 293 µM). The MIC [11] was 200 µg/mL (≈ 585 µM), the MIC [8] was 200 µg/mL (≈ 585 µM) and the MIC [9] was 200 µg/mL (≈ 585 µM). It also gave an MIC [10] of 100 µg/mL (≈ 293 µM).

`Cc1ccc(C2CC(=O)C(C)C(c3ccc(C)cc3)N2C(=O)CCl)cc1` (configuration not stated) gave an MIC [1] of 50 µg/mL (≈ 135 µM), an MIC [2] of 50 µg/mL (≈ 135 µM) and an MIC [3] of 25 µg/mL (≈ 67.6 µM). It also gave an MIC [5] of 12.5 µg/mL (≈ 33.8 µM), an MIC [6] of 50 µg/mL (≈ 135 µM) and an MIC [7] of 100 µg/mL (≈ 270 µM). The MIC [11] was 12.5 µg/mL (≈ 33.8 µM), the MIC [8] was 12.5 µg/mL (≈ 33.8 µM) and the MIC [9] was 100 µg/mL (≈ 270 µM). It also gave an MIC [10] of 25 µg/mL (≈ 67.6 µM).

Molecule `COc1ccc(C2C(C)C(=O)C(C)C(c3ccc(OC)cc3)N2C(=O)CCl)cc1` (configuration not stated) has an MIC [1] of 25 µg/mL (≈ 60.1 µM), an MIC [2] of 100 µg/mL (≈ 240 µM) and an MIC [3] of 100 µg/mL (≈ 240 µM). The MIC [5] was 50 µg/mL (≈ 120 µM), the MIC [6] was 100 µg/mL (≈ 240 µM) and the MIC [7] was 50 µg/mL (≈ 120 µM). The MIC [11] was 50 µg/mL (≈ 120 µM), the MIC [8] was 25 µg/mL (≈ 60.1 µM) and the MIC [9] was 100 µg/mL (≈ 240 µM). The MIC [10] was 100 µg/mL (≈ 240 µM).

Work on `CCC1C(=O)CC(c2ccc(Cl)cc2)N(C(=O)CCl)C1c1ccc(Cl)cc1` (configuration not stated) yielded an MIC [1] of 12.5 µg/mL (≈ 29.4 µM), an MIC [2] of 50 µg/mL (≈ 118 µM) and an MIC [3] of 50 µg/mL (≈ 118 µM). For the same molecule, the MIC [5] was 25 µg/mL (≈ 58.9 µM), the MIC [6] was 100 µg/mL (≈ 235 µM) and the MIC [7] was 25 µg/mL (≈ 58.9 µM). It also gave an MIC [11] of 25 µg/mL (≈ 58.9 µM), an MIC [8] of 12.5 µg/mL (≈ 29.4 µM) and an MIC [9] of 50 µg/mL (≈ 118 µM). It also gave an MIC [10] of 50 µg/mL (≈ 118 µM).

Molecule `CC1C(=O)CC(c2ccc(Cl)cc2)N(C(=O)CCl)C1c1ccc(Cl)cc1` (configuration not stated) has an MIC [1] of 100 µg/mL (≈ 243 µM), an MIC [2] of 25 µg/mL (≈ 60.9 µM) and an MIC [3] of 100 µg/mL (≈ 243 µM). It also gave an MIC [5] of 100 µg/mL (≈ 243 µM), an MIC [6] of 100 µg/mL (≈ 243 µM) and an MIC [7] of 50 µg/mL (≈ 122 µM). It also gave an MIC [11] of 25 µg/mL (≈ 60.9 µM), an MIC [8] of 50 µg/mL (≈ 122 µM) and an MIC [9] of 12.5 µg/mL (≈ 30.4 µM). It also gave an MIC [10] of 25 µg/mL (≈ 60.9 µM).

`CC1C(=O)C(C)C(c2ccc(Cl)cc2)N(C(=O)CCl)C1c1ccc(Cl)cc1` (configuration not stated) gave an MIC [1] of 25 µg/mL (≈ 58.9 µM), an MIC [2] of 100 µg/mL (≈ 235 µM) and an MIC [3] of 50 µg/mL (≈ 118 µM). For the same molecule, the MIC [5] was 100 µg/mL (≈ 235 µM), the MIC [6] was 200 µg/mL (≈ 471 µM) and the MIC [7] was 12.5 µg/mL (≈ 29.4 µM). The MIC [11] was 100 µg/mL (≈ 235 µM), the MIC [8] was 50 µg/mL (≈ 118 µM) and the MIC [9] was 100 µg/mL (≈ 235 µM). It also gave an MIC [10] of 50 µg/mL (≈ 118 µM).

For `Cc1ccc(C2C(C)C(=O)C(C)C(c3ccc(C)cc3)N2C(=O)CCl)cc1` (configuration not stated), the MIC [1] was 100 µg/mL (≈ 260 µM), the MIC [2] was 25 µg/mL (≈ 65.1 µM) and the MIC [3] was 50 µg/mL (≈ 130 µM). For the same molecule, the MIC [5] was 100 µg/mL (≈ 260 µM), the MIC [6] was 50 µg/mL (≈ 130 µM) and the MIC [7] was 200 µg/mL (≈ 521 µM). For the same molecule, the MIC [11] was 50 µg/mL (≈ 130 µM), the MIC [8] was 100 µg/mL (≈ 260 µM) and the MIC [9] was 200 µg/mL (≈ 521 µM). For the same molecule, the MIC [10] was 50 µg/mL (≈ 130 µM).
